Columns and labels:
4T1 mammary carcinoma = assay: In vivo T1-weighted MRI after intratumoral injection, with histological staining; parameters: species or system mouse; details: bladder, liver, kidneys; Gd control 50 μL, 20.5 mM
Experimental: To test whether Eu^II-222Fb would enhance contrast in necrotic tissue, we performed T1-weighted MRI before and after intratumoral injection of Eu^II-222Fb (50 μL, 19.4 mM) into a 4T1 mammary carcinoma. The 4T1 carcinoma model is an aggressive tumor that typically develops a necrotic core,^[10] and imaging was performed when tumors reached approximately 700-1000 mg to maximize the probability of necrosis. Images were acquired before and at 3, 20, and 120 min after intratumoral injection (FIG. 3A-D). […]
To better understand the potential mechanism of differentiation, we performed an intratumoral injection of Eu^II-222Fb (50 μL, 6.9 mM) and monitored contrast enhancement over the course of 3 h before sacrificing the mouse and removing the injected tumor for analysis of Eu content by inductively coupled plasma mass spectrometry. […]
Studies in animals were carried out with the assistance of the Animal Model and Therapeutics Evaluation Core of the Barbara Ann Karmanos Cancer Institute after approval from the Wayne State University Institutional Animal Care and Use Committee. […] Animals were pooled, implanted bilaterally subcutaneously with 30-60 mg tumor fragments with a 12 gauge trocar, and imaged when tumors reached approximately 700-1000 mg in size (determined by caliper measurements: tumor mass (mg)≈[tumor length (mm)×tumor width^2 (mm^2)]/2). […]

[1] = In vivo T1-weighted MRI after intravenous, intraperitoneal and subcutaneous injection; parameters: species or system mouse; details: liver, kidneys, bladder; equivalent dose for Gd control
Experimental: To test our hypothesis regarding the in vivo response of Eu^II-222, we acquired T1-weighted images of mice after administering Eu^II-222 (0.1 mL, 4 mM, europium dose of 3 mg/kg) through intravenous, intraperitoneal, and subcutaneous injections (FIG. 8). Mice were imaged prior to injection and at 3 and 8 min to compare responses with the three injection types. […] Although this observation is inconsistent with the low oxygen content of venous blood (relative to the peritoneal cavity), the circulation time of blood in a mouse is approximately 8 s (38). […] Therefore, the exchange between venous and arterial blood during circulation can explain our observations.
Studies in animals were carried out with the assistance of the Animal Model and Therapeutics Evaluation Core of the Barbara Ann Karmanos Cancer Institute after approval from the Wayne State University Institutional Animal Care and Use Committee. MRI scans were performed in the Elliman Clinical Research Building at Wayne State University with a 7 T Bruker Clinscan small animal MRI scanner equipped with a 30 cm bore. […]
For intravenous injections, mice were catheterized before being anesthetized with isoflurane. […] A correction volume (0.08 mL) was added to the calculated dose volumes for intravenous injections to account for the volume of the phosphate-buffered saline within the catheter. […]

Compound | contrast enhancement in organs associated with clearance after intratumoral injection (4T1 mammary carcinoma) | contrast enhancement in organs associated with clearance after intravenous injection [1]
Gd^III-1,4,7,10-tetraazacyclododecane-1,4,7,10-tetraacetate | bright with contrast within minutes of the injection | –
O=C([O-])CN(CCN(CC(=O)[O-])CC(=O)[O-])CCN(CC(=O)[O-])CC(=O)[O-].[Gd+3] [Gd^III-diethylenetriaminepentaacetate] | – | positive contrast enhancement was observed in the kidneys within 3 min
